Results: patent US10010525B2, “Methods of inducing anesthesia” (The Regents of the University of California, priority 2012, dated 2018)
Entries after “also recorded” stand apart in the source; their conditions may differ.

Columns and labels:
[1] = system: 3-transmembrane (TM3) and 4-transmembrane (TM4) receptors; settings: grouped by calculated molar solubility in unbuffered water at 25° C.; cited from earlier work
[2] = molecular target: T1, NMDA (NR1/NR2A) receptors (Rattus norvegicus, UniProt P35439+Q00959); assay: NMDA receptor two-electrode voltage clamp in oocytes at saturated drug concentration; format: cell-based; settings: for NMDA % Direct Effect: drug response without receptor agonist; for NMDA % Direct Effect / NMDA % Agonist Effect: percent of control agonist peak, mean ±SEM, 5-6 oocytes, saturated drug; for NMDA % Agonist Effect: drug with glutamate and glycine; for NMDA Drug Response: drug+agonist versus control agonist peak; for NMDA receptor modulation (in words): saturating aqueous concentration
T1 construct: expressed in transfected cells; host or cells: Xenopus laevis oocytes (RNA injection, 1:1)
Text: (§1) GABAA (α1β2γ2s) or NMDA (NR1/NR2A) receptors were expressed in oocytes and studied using standard two-electrode voltage clamp techniques. Hydrocarbons from 14 different organic functional groups were studied at saturated concentrations, and compounds within each group differed only by the carbon number at the ω-position or within a saturated ring. An effect on GABAA or NMDA receptors was defined as a 10% or greater reversible current change from baseline that was statistically different from zero.
(§2) An ovary from tricaine-anesthetized Xenopus laevis frogs was surgically removed using a protocol approved by the Institutional Animal Care and Use Committee at the University of California, Davis. Following manual disruption of the ovarian lobule septae, the ovary was incubated in 0.2% Type I collagenase (Worthington Biochemical, Lakewood, N.J.) to defolliculate oocytes which were washed and stored in fresh and filtered modified Barth's solution composed of 88 mM NaCl, 1 mM KCl, 2.4 mM NaHCO3, 20 mM HEPES, 0.82 mM MgSO4, 0.33 mM Ca(NO3)2, 0.41 mM CaCl2, 5 mM sodium pyruvate, gentamycin, penicillin, streptomycin, and corrected to pH=7.4. All salts and antibiotics were A.C.S. grade (Fisher Scientific, Pittsburgh, Pa.).
(§3) Clones used were provided as a gift from Dr. R. A. Harris (University of Texas, Austin) and were sequenced and compared to references in the National Center for Biotechnology Information database to confirm the identity of each gene. GABAA receptors were expressed using clones for the human GABAA α1 and the rat GABAA β2 and γ2s subunits in pCIS-II vectors. […] In separate oocytes, glutamate receptors were expressed using rat NMDA NR1 clones in a pCDNA3 vector and rat NMDA NR2A clones in a Bluescript vector. RNA encoding each subunit was prepared using a commercial transcription kit (T7 mMessage mMachine, Ambion, Austin, Tex.) was mixed in a 1:1 ratio, and 1-10 ng of total RNA was injected into oocytes and studied 1-2 days later.
Briefly, baseline perfusion solutions were the same as for GABAA with the substitution of equimolar BaCl2 for calcium salts and the addition of 0.1 mM EGTA; this constituted barium frog Ringer's solution (BaFR). Agonist solutions for NMDA studies also contained 0.1 mM glutamate (E) and 0.01 mM glycine (G) to constitute a BaFREG solution.
The syringe pump and perfusion chamber apparatus as well as the clamp holding potential and baseline-agonist exposure protocols were identical to that described for the GABAA studies. The same test compounds, concentrations, and preparative methods were used in NMDA voltage clamp studies as in the GABAA voltage clamp studies (Table 2).
(§4) Modulating drug responses were calculated as the percent of the control (baseline) peak as follows: 100·ID/IB, where ID and IB were the peak currents measured during agonist+drug and agonist baseline perfusions, respectively. When present, direct receptor activation by a drug was similarly calculated as a percent of the agonist response. […] A lack of receptor response (cut-off) was defined as a<10% change from baseline current that was statistically indistinguishable from zero using a two-tailed Student t-test.

[3] = molecular target: T2, GABAA (α1β2γ2s) receptors (UniProt P14867+P18508+P63138); assay: GABAA receptor two-electrode voltage clamp in oocytes at saturated drug concentration; format: cell-based, human α1, rat β2 and γ2s; settings: for GABAA % Direct Effect: drug response without receptor agonist; for GABAA % Direct Effect / GABAA % Agonist Effect: percent of control agonist peak, mean ±SEM, 5-6 oocytes, saturated drug; for GABAA % Agonist Effect: drug with γ-aminobutyric acid; for GABAA Drug Response: drug+agonist versus control agonist peak; for GABAA receptor modulation (in words): saturating aqueous concentration
T2 construct: expressed in transfected cells; host or cells: Xenopus laevis oocytes (intranuclear plasmid injection, α1:β2:γ2 = 1:1:10)
Text: as §1, §2, §3
Oocytes were studied in a 250 μL linear-flow perfusion chamber with solutions administered by syringe pump at 1.5 ml/min with gastight glass syringes and Teflon tubing. Oocyte GABAA currents were studied using standard two-electrode voltage clamping techniques at a holding potential of […] using a 250 μL channel linear-flow perfusion chamber with solutions administered by syringe pump at 1.5 mL/min.
After FR perfusion for 5 min, oocytes were exposed to 30 sec FR-GABA followed by another 5 min FR washout; this was repeated until stable GABAA-elicited peaks were obtained. Next, FR containing a saturated solution of the study drug (Table 2)—or for gaseous study compounds a vapor pressure equal to 90% of barometric pressure with balance oxygen—was used to perfuse the oocyte chamber for 2 min followed by perfusion with a FR-GABA solution containing the identical drug concentration for 30 sec.
as §4

T2 sequence (P14867 28-456): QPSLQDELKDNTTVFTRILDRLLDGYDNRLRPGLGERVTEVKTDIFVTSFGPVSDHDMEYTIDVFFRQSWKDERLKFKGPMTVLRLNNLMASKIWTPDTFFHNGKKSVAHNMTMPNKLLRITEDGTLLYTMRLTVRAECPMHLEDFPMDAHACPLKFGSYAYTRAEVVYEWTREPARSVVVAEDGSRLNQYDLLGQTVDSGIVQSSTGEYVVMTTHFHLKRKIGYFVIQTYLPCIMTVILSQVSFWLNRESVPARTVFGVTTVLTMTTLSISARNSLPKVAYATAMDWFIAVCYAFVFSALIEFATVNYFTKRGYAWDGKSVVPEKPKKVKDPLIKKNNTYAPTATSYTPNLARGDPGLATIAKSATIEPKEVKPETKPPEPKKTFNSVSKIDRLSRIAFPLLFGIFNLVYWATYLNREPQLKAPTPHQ
T2 sequence (P63138 25-474 limits assumed): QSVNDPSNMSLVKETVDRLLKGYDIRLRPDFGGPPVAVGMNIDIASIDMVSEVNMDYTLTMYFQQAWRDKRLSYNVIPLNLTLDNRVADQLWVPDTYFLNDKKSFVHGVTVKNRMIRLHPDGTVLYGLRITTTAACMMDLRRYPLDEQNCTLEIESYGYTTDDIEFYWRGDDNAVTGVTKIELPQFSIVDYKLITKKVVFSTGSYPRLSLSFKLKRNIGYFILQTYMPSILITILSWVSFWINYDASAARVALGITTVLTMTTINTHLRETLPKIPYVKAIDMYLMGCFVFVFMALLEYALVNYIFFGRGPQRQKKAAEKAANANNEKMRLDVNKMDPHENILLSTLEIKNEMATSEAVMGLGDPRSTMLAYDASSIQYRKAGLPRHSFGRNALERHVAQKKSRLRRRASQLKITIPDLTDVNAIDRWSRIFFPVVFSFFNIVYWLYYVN
T2 sequence (P18508 39-466): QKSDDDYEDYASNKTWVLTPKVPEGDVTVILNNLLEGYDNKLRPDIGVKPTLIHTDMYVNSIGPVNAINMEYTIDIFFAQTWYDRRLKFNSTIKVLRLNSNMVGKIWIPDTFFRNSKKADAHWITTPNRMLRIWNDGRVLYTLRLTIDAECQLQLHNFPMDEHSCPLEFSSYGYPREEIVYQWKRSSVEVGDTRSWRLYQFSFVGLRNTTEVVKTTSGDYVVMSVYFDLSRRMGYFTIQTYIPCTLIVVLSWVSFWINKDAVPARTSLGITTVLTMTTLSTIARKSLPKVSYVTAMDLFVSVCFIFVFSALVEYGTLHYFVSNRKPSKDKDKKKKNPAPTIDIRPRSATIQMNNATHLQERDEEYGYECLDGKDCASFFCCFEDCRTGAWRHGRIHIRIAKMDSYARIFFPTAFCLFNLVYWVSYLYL
T1 sequence (Q00959 23-1464, other chains not shown): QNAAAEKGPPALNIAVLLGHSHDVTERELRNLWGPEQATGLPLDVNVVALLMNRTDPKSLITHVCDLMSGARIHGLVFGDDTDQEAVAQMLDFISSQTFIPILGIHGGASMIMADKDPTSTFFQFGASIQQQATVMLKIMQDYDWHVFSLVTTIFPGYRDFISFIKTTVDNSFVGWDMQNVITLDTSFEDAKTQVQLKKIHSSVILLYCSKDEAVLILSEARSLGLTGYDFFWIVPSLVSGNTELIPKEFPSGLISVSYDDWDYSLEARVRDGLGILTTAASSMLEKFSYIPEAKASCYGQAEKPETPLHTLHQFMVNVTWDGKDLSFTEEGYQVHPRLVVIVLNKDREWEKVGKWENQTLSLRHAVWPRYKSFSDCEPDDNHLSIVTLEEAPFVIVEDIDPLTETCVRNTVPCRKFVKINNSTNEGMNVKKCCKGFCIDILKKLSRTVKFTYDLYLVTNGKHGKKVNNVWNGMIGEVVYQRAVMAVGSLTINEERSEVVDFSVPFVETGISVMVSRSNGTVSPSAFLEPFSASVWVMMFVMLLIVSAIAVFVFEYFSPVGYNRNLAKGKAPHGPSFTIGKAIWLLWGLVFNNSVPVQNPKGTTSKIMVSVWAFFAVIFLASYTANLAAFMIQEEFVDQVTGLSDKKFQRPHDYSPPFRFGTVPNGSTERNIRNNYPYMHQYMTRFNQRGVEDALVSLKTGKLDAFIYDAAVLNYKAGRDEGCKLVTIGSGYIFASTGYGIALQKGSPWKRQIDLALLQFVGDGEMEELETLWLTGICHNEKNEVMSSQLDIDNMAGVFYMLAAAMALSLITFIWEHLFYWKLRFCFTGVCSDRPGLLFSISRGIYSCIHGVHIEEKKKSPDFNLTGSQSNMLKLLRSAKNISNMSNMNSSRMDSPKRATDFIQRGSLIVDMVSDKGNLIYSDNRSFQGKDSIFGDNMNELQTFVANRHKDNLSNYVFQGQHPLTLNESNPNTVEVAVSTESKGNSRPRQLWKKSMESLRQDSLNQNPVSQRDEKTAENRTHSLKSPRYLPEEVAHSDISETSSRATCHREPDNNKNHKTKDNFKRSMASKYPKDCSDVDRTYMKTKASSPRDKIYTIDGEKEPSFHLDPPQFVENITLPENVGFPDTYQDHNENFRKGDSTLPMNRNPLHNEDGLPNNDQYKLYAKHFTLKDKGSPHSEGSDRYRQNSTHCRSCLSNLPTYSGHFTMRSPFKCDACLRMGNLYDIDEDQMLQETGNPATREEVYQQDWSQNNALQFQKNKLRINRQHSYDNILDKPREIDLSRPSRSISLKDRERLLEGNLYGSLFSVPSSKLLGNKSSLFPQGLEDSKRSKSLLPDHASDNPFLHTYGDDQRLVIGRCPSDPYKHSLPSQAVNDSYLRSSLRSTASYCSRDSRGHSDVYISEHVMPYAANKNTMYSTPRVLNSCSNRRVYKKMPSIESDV

Row | Compound | ion channel modulation, TM3 versus TM4 receptors (FIG. 2) [1] | NMDA % Direct Effect [2] | NMDA % Agonist Effect [2] [%] | GABAA % Direct Effect [3] | GABAA % Agonist Effect [3] [%] | GABAA Drug Response [3] | NMDA Drug Response [2] | NMDA receptor modulation (in words) [2] | NMDA receptor modulation (in words) ([2]; listed as n-butane) | GABAA receptor modulation (in words) [3]
1 | FC1(F)C(F)(F)C(F)(Cl)C1(F)Cl (stereo not drawn) [1,2-dichlorohexafluorocyclobutane] | modulate 4-transmembrane receptors (TM4) or neither receptor type |  |  |  |  |  |  |  |  | 
2 | CCCCCCCCC(C)=O [2-decanone] |  | none | 81 ± 1 | none | 476 ± 52 | + (potentiation (+) for drug+agonist responses greater than the control agonist peak) |  |  |  | 
3 | CCCCCCCCCCC(C)=O [2-dodecanone] |  | none | 97 ± 3 | none | 325 ± 30 | + (potentiation (+) for drug+agonist responses greater than the control agonist peak) | 0 (no response (0) for drug+agonist responses that differ by <10% from the control agonist peak) |  |  | 
4 | CCCCCCCCCC(C)=O [2-undecanone] |  | none | 98 ± 2 | none | 230 ± 16 | + (potentiation (+) for drug+agonist responses greater than the control agonist peak) | 0 (no response (0) for drug+agonist responses that differ by <10% from the control agonist peak) |  |  | 
5 | CCCC [butane] |  | none | 7 ± 2 | none | 623 ± 68 | + (potentiation (+) for drug+agonist responses greater than the control agonist peak) |  | negatively modulates | almost completely inhibited NMDA receptor currents | positively modulate
6 | C1CCCCC1 [cyclohexane] |  | none | 101 ± 2 | none | 421 ± 17 | + (potentiation (+) for drug+agonist responses greater than the control agonist peak) | 0 (no response (0) for drug+agonist responses that differ by <10% from the control agonist peak) |  |  | 
7 | C1CCCC1 [cyclopentane] |  | none | 83 ± 2 | 3 ± 2% | 196 ± 11 | + (potentiation (+) for drug+agonist responses greater than the control agonist peak) |  |  |  | 
8 | C1CC1 [cyclopropane] | modulate both 3-transmembrane (TM3) and TM4 receptors |  |  |  |  |  |  |  |  | 
9 | CCCCCCCCCC=O [decanal] |  | none | 97 ± 3 | none | 159 ± 5 | + (potentiation (+) for drug+agonist responses greater than the control agonist peak) | 0 (no response (0) for drug+agonist responses that differ by <10% from the control agonist peak) |  |  | 
10 | FC(F)OC(F)C(F)(F)F (stereo not drawn) [desflurane] | modulate both 3-transmembrane (TM3) and TM4 receptors |  |  |  |  |  |  |  |  | 
11 | CN1C(=O)CN=C(c2ccccc2)c2cc(Cl)ccc21 [diazepam] | modulate 4-transmembrane receptors (TM4) or neither receptor type |  |  |  |  |  |  |  |  | 
12 | CCCCCCOCCCCCC [dihexylether] |  | none | 112 ± 4 | none | 113 ± 1 | + (potentiation (+) for drug+agonist responses greater than the control agonist peak) | 0 (no response (0) for drug+agonist responses that differ by <10% from the control agonist peak) |  |  | 
13 | CCCCCOCCCCC [dipentylether] |  | none | 97 ± 2 | none | 211 ± 9 | + (potentiation (+) for drug+agonist responses greater than the control agonist peak) | 0 (no response (0) for drug+agonist responses that differ by <10% from the control agonist peak) |  |  | 
14 | CCCCCCCCCC(=O)OCC [ethyl decanoate] |  | none | 98 ± 1 | none | 137 ± 2 | + (potentiation (+) for drug+agonist responses greater than the control agonist peak) | 0 (no response (0) for drug+agonist responses that differ by <10% from the control agonist peak) |  |  | 
15 | CCCCCCC(=O)OCC [ethyl heptanoate] |  | none | 78 ± 3 | none | 370 ± 34 | + (potentiation (+) for drug+agonist responses greater than the control agonist peak) |  |  |  | 
16 | CCCCCCCC(=O)OCC [ethyl octanoate] |  | none | 90 ± 1 | none | 285 ± 18 | + (potentiation (+) for drug+agonist responses greater than the control agonist peak) |  |  |  | 
17 | CCCCCC [hexane] |  | none | 100 ± 1 | none | 129 ± 5 | + (potentiation (+) for drug+agonist responses greater than the control agonist peak) | 0 (no response (0) for drug+agonist responses that differ by <10% from the control agonist peak) |  |  | 
18 | CCCCCCCCC=O [nonanal] |  | none | 104 ± 2 | none | 219 ± 29 | + (potentiation (+) for drug+agonist responses greater than the control agonist peak) | 0 (no response (0) for drug+agonist responses that differ by <10% from the control agonist peak) |  |  | 
19 | CCCCCCCC=O [octanal] |  | none | 71 ± 3 | 6 ± 3% | 357 ± 20 | + (potentiation (+) for drug+agonist responses greater than the control agonist peak) |  |  |  | 
20 | CCCCC [pentane] |  | none | 94 ± 3 | none | 321 ± 10 | + (potentiation (+) for drug+agonist responses greater than the control agonist peak) | 0 (no response (0) for drug+agonist responses that differ by <10% from the control agonist peak) | does not modulate NMDA receptors; also recorded: no effect |  | positively modulate
21 | CCCCCCCCCCC=O [undecanal] |  | none | 97 ± 8 | none | 299 ± 29 | + (potentiation (+) for drug+agonist responses greater than the control agonist peak) | 0 (no response (0) for drug+agonist responses that differ by <10% from the control agonist peak) |  |  | 
